# Reference: ChEMBL document CHEMBL3507680, “University of Dundee, Gates Library screen for HepG2 cell viability”
# Experiment: Human HepG2 cell viability assay in 384 well format
# Type: toxicity, cell-based
# Design: dose 125 nL, time 70.5 hour; concentration not given beside the values
# Details: HepG2 cells, read-out: Inhibition
row,SMILES,cytotoxicity at 70.5 h
1,COc1ccc(C(O)CNc2c(C#N)c(=O)n(C)c(=O)n2C)cc1 (stereo unspecified),3.78%
2,COc1ccc(C(CC(=O)O)NC(=O)c2cc(C)on2)cc1 (stereo unspecified),-1.84%
3,COC(=O)c1cccc2nc([C@H]3CCN(CC(C)C)C3)oc12,-4.07%
4,Cc1cc(CS(=O)(=O)C(C)C(=O)N(C)c2ccccc2)on1 (stereo unspecified),-28.7%
5,COCCNC(=O)c1nc2c(s1)CCCN2c1ccc(C)nn1,0.81%
6,COCCn1cnnc1CN(C)c1nc(N)ncc1C,-14.6%
7,O=C(Nc1cccnc1N1CCSCC1)c1ccc2c(c1)OCO2,-4.23%
8,C=Cc1ccc(C(=O)N2CCCC(Nc3ccccc3)C2)cc1 (stereo unspecified),26.6%
9,Cc1ccccc1C(=O)NC[C@@H]1CCN(C(=O)c2cscn2)C[C@H]1O,18.9%
10,CCOc1ccc(CNCc2ccc(C(=O)NC)cc2)cc1OCC,-7.21%
11,COCc1nn(C(C)C)c2c1CCN(Cc1cccs1)C2,-6.03%
12,CN(C)c1ncccc1CNc1cc(N2CCCC2CO)ncn1 (stereo unspecified),10.5%
13,Cc1c(NCCOCC(F)(F)F)cccc1C(=O)N1CCCC1,-10.8%
14,CSC1(CNC(=O)N(C)Cc2ccc(Cl)s2)CCOCC1,30.6%
15,Cc1cnc(C(=O)N2CCCN(c3nc(C)cs3)CC2)cn1,-7.69%
16,Cc1ccc(-c2nc(CN3CCCC3Cn3cncn3)co2)cc1 (stereo unspecified),1.81%
17,Cc1nc(CN2CCCC(NCCc3ccccc3Cl)C2)no1 (stereo unspecified),-6.15%
18,c1ccc2oc(N3CCCC3Cn3cncn3)nc2c1 (stereo unspecified),-3.56%
19,CC(=O)N1CCN(C(=O)C2SCCc3sccc32)CC1 (stereo unspecified),20.4%
20,CN(C)C(=O)CCCn1ccc(NCc2ccc(C#N)cc2)n1,-2.31%
21,CCNc1cc2c(nn1)CCN(C(=O)c1cccnc1N(C)C)C2,-1.46%
22,O=S(=O)(c1ccccc1)N1CCC2(CCCN2Cc2cccc(Cl)c2)C1 (stereo unspecified),-11.2%
23,O=C(Nc1nncs1)c1ccc(O)nc1,0.228%
24,COC1CCN(CCNC(=O)NC(C)c2ccc(F)c(F)c2)CC1 (stereo unspecified),23.5%

row,SMILES,cytotoxicity at 70.5 h
1,COCCS(=O)(=O)NC(C)c1cccc(C)c1C (stereo unspecified),28.4%
2,Cc1cc(CN2CCN(CCOc3cccc(C#N)c3)CC2)no1,5.03%
3,COC1COC2(CCN(c3ccc(C#N)cc3)CC2)C1 (stereo unspecified),-5.93%
4,CC1=C[C@@H](CN2CCN(C)CC2)[C@H](C(C)C)C[C@H]1Cc1nnc(C)o1,-9.92%
5,Cc1cccc(CN2C[C@H](NS(C)(=O)=O)[C@@H]3OCCC[C@@H]32)n1,4.73%
6,COC(=O)NCC(=O)N1CCC(Oc2cccc(C)c2)CC1,-5.33%
7,CC(C)CNC(=O)c1cn(C(C)C)cc2c(=O)[nH]nc1-2,-7.94%
8,Cc1noc(C)c1CN(C)C(=O)NCCOc1ccc(F)cc1F,-6.66%
9,Cc1cc(CN2CCN(Cc3cnc4c(c3)c(C)nn4C)CC2)on1,-6.72%
10,CCc1noc(C(C)Sc2nnc(C3CC3)n2CC(N)=O)n1 (stereo unspecified),-0.541%
11,CCCNC(=O)CCOc1cccc(F)c1,-3.12%
12,O=C(c1ccc(=O)[nH]c1)N1CCc2c(nc(-c3cccnc3)[nH]c2=O)C1,-3.02%
13,OCC1CCN(Cc2cc3c(cc2Br)OCCO3)CC1,17.4%
14,COCCn1cnnc1CCNc1cc(C)nc2ccnn12,-2.09%
15,COCC[C@]1(O)CCN(Cc2nc(C)cs2)C[C@H]1C,15.3%
16,Cc1ccc(-c2cc(C(=O)NCCN3CCCS3(=O)=O)[nH]n2)cc1,11.7%
17,COc1ccc(Cc2nc3c([nH]2)CC(C)(C)CNC3=O)cc1OC,-8.64%
18,COc1cccc(N2CC3(CCN(c4cc(OC)ncn4)C3)CC2=O)c1 (stereo unspecified),7.12%
19,Cc1ncccc1C(=O)NCC(C)Oc1ccc(F)cc1 (stereo unspecified),24.4%
20,Cn1cc(C[C@H]2[C@H](O)CCN2C(=O)c2ccsc2)cn1,-4.72%
21,CNC(=O)CSc1cnn(CC(=O)Nc2cccc(Cl)c2C)c(=O)c1Cl,-16.3%
22,Cc1nc(C2CCN2c2ncccn2)cc(N(C)C)n1 (stereo unspecified),-8.86%
23,CCCS(=O)(=O)N1CCN(CCCO)CC1,0.836%
24,CN1CCN(C(CNC(=O)CCn2cccn2)c2cccs2)CC1 (stereo unspecified),-4.76%

row,SMILES,cytotoxicity at 70.5 h
1,CC(C)N(C)S(=O)(=O)NCc1cccnc1N(C)C,-4.22%
2,Cc1n[nH]c(C2CN(C(=O)c3coc(Br)c3)CCO2)n1 (stereo unspecified),-10.2%
3,Fc1ccc(CN2CCC3(CC2)CCN(c2ncccn2)CC3)cc1,10.9%
4,O=C(Nc1ccc(F)cc1)N1CCC2(CCC(=O)N(C3CC3)C2)CC1,-11.6%
5,O=C(CN1C=Nc2ccccc2S1(=O)=O)NCc1ccccc1F,-9.4%
6,CO[C@H]1C[C@@H](O)C12CCN(C(=O)CCCOc1ccccc1)CC2,-8.27%
7,Cc1ccc(S(=O)(=O)NCCNC(=O)c2ccoc2)cc1F,11.8%
8,CC(C)C1CN(C(=O)c2ccncc2)CCS1 (stereo unspecified),-1.14%
9,CCNc1c(C#N)c(=O)n(C)c(=O)n1C,-8.97%
10,CCN1CCC(NC(=O)CN2CCCC2Cn2cncn2)CC1 (stereo unspecified),-2.95%
11,CCC[C@H]1CN(C(=O)Cn2ccccc2=O)C[C@@H]1NS(C)(=O)=O,-1.15%
12,CN(C)CCOCc1nnc2n1CCN(Cc1ccc(F)cc1)CC2,23.8%
13,c1cncc(OC[C@]23COC[C@H]2CN(C2CCOCC2)C3)c1,-1.59%
14,CS(=O)(=O)NCC(=O)N[C@H]1CN(c2cnccn2)C[C@@H]1C1CC1,9.56%
15,CC1c2ncc(COc3cccnc3)n2CCN1Cc1ccco1 (stereo unspecified),-12.4%
16,CCCC(=O)N1CCCC(c2ccccn2)C1 (stereo unspecified),-1.3%
17,O=C1CC(NCc2ccncc2)CN1CCc1cccc(Cl)c1 (stereo unspecified),-6.56%
18,CN1C(=O)CC(c2ccccc2)C12CCN(CCO)CC2 (stereo unspecified),2.6%
19,CN(C)C(=O)CO[C@H]1CN(Cc2ccccc2)[C@@H]2CCCO[C@H]12,34.3%
20,COc1ccc(C(C)N2CCN(Cc3nccn3C)CC2)cc1Cl (stereo unspecified),-6.8%
21,O=C(c1ccn(-c2cccc(F)c2)n1)N1CCCC(n2cccn2)C1 (stereo unspecified),-15.2%
22,CCc1noc(C(C)N2CCC(NS(=O)(=O)c3cccs3)CC2)n1 (stereo unspecified),-11.6%
23,Cn1cnc(-c2nc(C(=O)NCCN3CCCC3)c3ccccn23)c1,-5.67%
24,c1cnc(-c2cnc(N3CCCCC3)nc2C2CCCO2)cn1 (stereo unspecified),-5.56%

row,SMILES,cytotoxicity at 70.5 h
1,Cc1cccc(CN2CCCC3(CCN(c4cccnc4)C3=O)C2)n1 (stereo unspecified),-3.53%
2,CC1CCc2nc(O)c(C(=O)NCCCN3CCN(C)CC3)cc2C1 (stereo unspecified),-7.22%
3,CN(C)c1ccc(CN2CCC(C(O)Cc3ccccc3)CC2)cn1 (stereo unspecified),-3.93%
4,CCOc1ccc(Cl)cc1C1CCCN1 (stereo unspecified),-16.4%
5,CCc1nnc(C(C)N(C)Cc2c(C)nn(-c3ccccc3)c2C)o1 (stereo unspecified),-1.32%
6,Cc1ccc(N2CCCN(C(=O)c3cc(CC(C)C)n[nH]3)CC2)nn1,12.9%
7,CN(C)C(=O)N1C[C@@H]2COC[C@]2(c2nnc(C3CC3)o2)C1,-10.1%
8,O=C(CC1CCCCC1)N1CCC(O)(C(F)(F)F)C1 (stereo unspecified),1.99%
9,CC(C)c1nc(CN2CCOC(CNc3cccnn3)C2)cs1 (stereo unspecified),-8.93%
10,CCn1cnnc1C1CCN(C(=O)COc2ccccc2)CC1,-9.36%
11,CC(C)Cc1cn(C2CCN(C(C)CCn3cccn3)CC2)nn1 (stereo unspecified),-11.6%
12,Cc1ccc(S(=O)(=O)NCCc2cccnc2)cc1C,-3.85%
13,CCCN(CC1CC1)C(=O)Cn1ccccc1=O,-3.4%
14,COCC(NC(=O)c1cc(NC(C)=O)ccc1Cl)c1ccnn1C (stereo unspecified),-1.93%
15,CCN(CC)c1ccc(CNC(=O)N2CCC(C#N)CC2)cc1,-14.6%
16,Cc1nc(C2CCCNC2)cc(N(Cc2nccn2C)C2CC2)n1 (stereo unspecified),7.52%
17,CN(Cc1ccc(CCC(C)(C)O)cc1)Cc1cccnc1,-11.5%
18,Cc1nc(CN2CCc3nc(NC(C)C)nc(C)c3C2)cs1,-6.71%
19,COC[C@@]12CCO[C@@H]1CCN(C(=O)Cc1ccccc1F)C2,-10.5%
20,O=C(NCc1ccccc1OCCO)Nc1ccc2c(c1)CCC2,0.688%
21,CS(=O)(=O)NC(=O)c1ccn(-c2cccc(Br)c2)n1,-3.84%
22,CC(Cn1cncn1)NCc1nncn1C1CCCCC1 (stereo unspecified),-1.66%
23,O[C@@H]1CN(Cc2cnccn2)C[C@H]1Oc1ccccc1,-6.26%
24,CN(CC(N)=O)Cc1csc(-c2ccc(F)cc2)n1,-0.0734%

row,SMILES,cytotoxicity at 70.5 h
1,Cc1noc(C)c1C1CCCN1CCC(=O)N1CCc2ccccc2C1 (stereo unspecified),-13.3%
2,Cn1c(C2CCCN2C(=O)c2cn(CCN)nn2)nc2ccccc21 (stereo unspecified),-15.7%
3,CCCc1cc(C(=O)N[C@@H]2CC[C@@H](N3CCOCC3)[C@@H]2O)no1,-5.49%
4,COc1ccc(C(C)N(C)Cc2c(C(C)(C)C)[nH]c3ncccc23)cc1 (stereo unspecified),12.9%
5,CC1(C)CC(=O)N(CC(=O)Nc2ccon2)c2ccccc21,-6.95%
6,CN(CCc1ccccn1)c1cc(N2CCCCC2)ncn1,-6.31%
7,CC(OCCCNC(=O)c1cccnc1O)c1ccccc1 (stereo unspecified),-1.73%
8,Cn1nc(CNC(=O)C2CCCC2)cc1C1CC1,38.9%
9,Cc1ccc(C(=O)O)c(N2Cc3cnc(C(C)(C)C)nc3C2)n1,-14.8%
10,Cc1nc(C(C)C)cc(N2CCC3(CCC(=O)N(CC4CC4)C3)CC2)n1,-11%
11,Cc1nnc(NC(=O)CN2CCOC(Cn3cccn3)C2)s1 (stereo unspecified),-6.17%
12,COCC(NC1CCN(CC(C)C)CC1)c1ccnn1C (stereo unspecified),-6.73%
13,CCC(=O)c1ccccc1NN1c2ccccc2C(=O)C1(C)OC (stereo unspecified),4.64%
14,CN(CCCc1cnn(C)c1)C(=O)C1CCC(=O)N(C2CCCC2)C1 (stereo unspecified),-0.586%
15,Nc1nc2c(c3c1C(=O)NC3=O)CCC2,-14.7%
16,CCCN1CCC(Nc2nc(CC)ns2)CC1,-2.52%
17,O=C(c1ccc[nH]1)N1CCn2cc(Cn3cccn3)nc2C1,-8.4%
18,CC(C)NC(=O)[C@H]1C[C@@H]2[C@@H](C1)OCCN2Cc1cnn(C)c1,-4.89%
19,OC1(CNc2ccc(Br)cn2)CCSCC1,15.9%
20,CN(Cc1cccc(F)c1)C1CCN(CCc2ccccn2)CC1,15.1%
